17 molecules from US8273774B2, “Phenoxypyridinylamide compounds” (AstraZeneca AB, priority 2008, dated 2012) can be followed below.

For the test, the target named is recombinant Human Phosphodiesterase B2 (PDE4B2) (Homo sapiens, UniProt Q07343). The experiment in a line: Human Phosphodiesterase B2 Radiometric Assay. The test is classed as biochemical. The settings on record: 0.1 μg/mL recombinant PDE4B2; preincubated at 30 C for 30 min; [3H]cyclic AMP 8 nM, stopped after 20 min; yttrium silicate SPA beads; read-out: PDE4B2 pIC50 (converted). How it is done: Human Phosphodiesterase B2 Radiometric Assay
Chain of recombinant Human Phosphodiesterase B2 (PDE4B2) (Q07343 1-564 isoform Q07343-2): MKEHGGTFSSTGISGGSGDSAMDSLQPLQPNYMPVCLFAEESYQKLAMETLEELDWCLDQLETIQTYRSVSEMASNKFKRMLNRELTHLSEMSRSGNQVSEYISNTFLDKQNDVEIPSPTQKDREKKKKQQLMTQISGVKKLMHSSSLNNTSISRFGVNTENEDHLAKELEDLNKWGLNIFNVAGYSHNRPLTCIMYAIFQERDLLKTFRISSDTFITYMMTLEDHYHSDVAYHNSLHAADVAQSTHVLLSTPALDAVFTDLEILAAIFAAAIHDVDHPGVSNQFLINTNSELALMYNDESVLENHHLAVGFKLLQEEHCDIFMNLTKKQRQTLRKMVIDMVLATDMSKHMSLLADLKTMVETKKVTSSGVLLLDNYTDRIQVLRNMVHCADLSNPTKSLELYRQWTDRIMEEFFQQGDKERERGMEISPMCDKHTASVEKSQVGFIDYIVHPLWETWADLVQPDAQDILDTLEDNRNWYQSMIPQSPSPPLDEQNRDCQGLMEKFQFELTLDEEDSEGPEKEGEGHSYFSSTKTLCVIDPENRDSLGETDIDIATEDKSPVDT
The assay uses recombinant Human Phosphodiesterase B2 (PDE4B2) produced in house (PrAZL0163), stored at −20° C. This assay is based on the observation that 5′AMP, the product of the reaction catalysed by PDE4, binds preferentially to yttrium silicate SPA beads (Amersham Biosciences, UK) compared to the substrate, cAMP. Compounds at the appropriate concentration were preincubated at 30 C for 30 min with an assay buffer containing 50 mM HEPES (pH 7.5), 8.3 mM MgCl2, 1.7 mM EGTA, 0.01% (w/v) Brij®35 and 0.1 μg/mL recombinant PDE4B2. The reaction was started by the addition of [3H]cyclic AMP to give a final concentration of 8 nM, and was stopped 20 min after the addition of the substrate by the addition of yttrium silicate SPA beads containing 18 mM Zn SO4. Bound […] was measured using a Topcount NXT (Packard Bioscience, UK). pIC50 values (presented in Table 2) were determined using Xlfit3 curve fitting, using model 205.

Take `Cn1ccc(C(=O)N[C@H]2CC[C@@H](NC(=O)c3cc(F)cnc3Oc3cccc(-c4ccc(CN5CCSCC5)cc4CN4CCOCC4)c3)CC2)n1` [Example 199, 5-fluoro-N-((1s,4s)-4-(1-methyl-1H-pyrazole-3-carboxamido)cyclo-hexyl)-2-(2′-(morpholinomethyl)-4′-(thiomorpholinomethyl)biphenyl-3-yloxy)nicotinamide]: the IC50 is 20 pM.

On to `Cc1cc(C(=O)N[C@H]2CC[C@@H](NC(=O)c3cc(F)cnc3Oc3cccc(-c4ccc(CCCN5CCNCC5)cc4)c3)CC2)nn1C` [Example 130, N-((1s,4s)-4-(1,5-dimethyl-1H-pyrazole-3-carboxamido)cyclohexyl)-5-fluoro-2-(4′-(3-(piperazin-1-yl)propyl)biphenyl-3-yloxy)nicotinamide], for which the IC50 is 31.6 pM. For `Cc1cccc(C(=O)N[C@H]2CC[C@@H](NC(=O)c3cc(F)cnc3Oc3cccc(-c4ccc(O)cc4CN(C)C)c3)CC2)n1` [Example 10, N-((1s,4s)-4-(2-(2′-((dimethylamino)methyl)-4′-hydroxybiphenyl-3-yloxy)-5-fluoronicotinamido)cyclohexyl)-6-methylpicolinamide], the IC50 was 31.6 pM. On to `Cc1ccc(O)c(C(=O)N[C@H]2CC[C@@H](NC(=O)c3cc(F)cnc3Oc3cccc(-c4ccc(O)c(CN5C[C@@H](C)N[C@@H](C)C5)c4)c3)CC2)c1` [Example 95, 2-(3′-(((3S,5R)-3,5-dimethylpiperazin-1-yl)methyl)-4′-hydroxybiphenyl-3-yloxy)-5-fluoro-N-((1s,4s)-4-(2-hydroxy-5-methylbenzamido)cyclohexyl)nicotinamide], for which the IC50 is 200 pM. For `Cc1nc(C(=O)N[C@H]2CC[C@@H](NC(=O)c3cc(F)cnc3Oc3cccc(-c4ccc(CCN5C[C@@H](C)N[C@@H](C)C5)cc4)c3)CC2)cs1` [Example 86, N-((1s,4s)-4-(2-(4′-(2-((3S,5R)-3,5-dimethylpiperazin-1-yl)ethyl)biphenyl-3-yloxy)-5-fluoronicotinamido)cyclohexyl)-2-methylthiazole-4-carboxamide], the IC50 is 31.6 pM. As for `COCc1nc(C(=O)N[C@H]2CC[C@@H](NC(=O)c3cc(F)cnc3Oc3cccc(-c4ccc(O)cc4CN4CCOCC4)c3)CC2)cs1` [Example 63, N-((1s,4s)-4-(5-fluoro-2-(4′-hydroxy-2′-(morpholinomethyl)biphenyl-3-yloxy)nicotinamido)cyclohexyl)-2-(methoxymethyl)thiazole-4-carboxamide], the IC50 is 126 pM. In the case of `Cc1csc(C(=O)N[C@H]2CC[C@@H](NC(=O)c3cc(F)cnc3Oc3cccc(-c4ccc(O)cc4CN4CCOCC4)c3)CC2)n1` [Example 45, N-((1s,4s)-4-(5-fluoro-2-(4′-hydroxy-2′-(morpholinomethyl)biphenyl-3-yloxy)nicotinamido)cyclohexyl)-4-methylthiazole-2-carboxamide], the IC50 was 15.8 pM. With `Cc1ncsc1C(=O)N[C@H]1CC[C@@H](NC(=O)c2cc(F)cnc2Oc2cccc(-c3ccc(O)cc3CN3CCOCC3)c2)CC1` [Example 33, N-((1s,4s)-4-(5-fluoro-2-(4′-hydroxy-2′-(morpholinomethyl)biphenyl-3-yloxy)nicotinamido)cyclohexyl)-4-methylthiazole-5-carboxamide], the IC50 was 631 pM. In the case of `Cc1nc(C(=O)N[C@H]2CC[C@@H](NC(=O)c3cc(F)cnc3Oc3cccc(-c4ccc(O)c(CN5C[C@@H](C)N[C@@H](C)C5)c4)c3)CC2)cs1` [Example 68, N-((1s,4s)-4-(2-(3′-(((3R,5S)-3,5-dimethylpiperazin-1-yl)methyl)-4′-hydroxybiphenyl-3-yloxy)-5-fluoronicotinamido)cyclohexyl)-2-methylthiazole-4-carboxamide], the IC50 was 25.1 pM.

Turning to `CN1CCCN(Cc2cc(O)ccc2-c2cccc(Oc3ncc(F)cc3C(=O)N[C@H]3CC[C@@H](NC(=O)c4ccc5ccccc5n4)CC3)c2)CC1` [Example 27, N-((1s,4s)-4-(5-fluoro-2-(4′-hydroxy-2′-((4-methyl-1,4-diazepan-1-yl)methyl)biphenyl-3-yloxy)nicotinamido)cyclohexyl)quinoline-2-carboxamide], the IC50 is 631 pM. The value for `O=C(N[C@H]1CC[C@@H](NC(=O)c2cc(F)cnc2Oc2cccc(-c3ccc(O)cc3CN3CCOCC3)c2)CC1)c1cccc(O)n1` [Example 40, N-((1s,4s)-4-(5-fluoro-2-(4′-hydroxy-2′-(morpholinomethyl)biphenyl-3-yloxy)nicotinamido)cyclohexyl)-6-hydroxypicolinamide] was 794 pM; that for `CCCN1CCN(Cc2ccc(-c3cccc(Oc4ncc(F)cc4C(=O)N[C@H]4CC[C@@H](NC(=O)c5cc(C)n(C)n5)CC4)c3)c(CN3CCOCC3)c2)CC1` [Example 181, N-((1s,4s)-4-(1,5-Dimethyl-1H-pyrazole-3-carboxamido)cyclohexyl)-5-fluoro-2-(2′-(morpholinomethyl)-4′-((4-propylpiperazin-1-yl)methyl)biphenyl-3-yloxy)nicotinamide] was 251 pM; that for `Cc1cccc2nc(C(=O)N[C@H]3CC[C@@H](NC(=O)c4cc(F)cnc4Oc4cccc(-c5ccc(CN6CCCC6)cc5)c4)CC3)cn12` [Example 50, N-((1s,4s)-4-(5-fluoro-2-(4′-(pyrrolidin-1-ylmethyl)biphenyl-3-yloxy)nicotinamido)cyclohexyl)-5-methylimidazo[1,2-a]pyridine-2-carboxamide] was 316 pM.

In the case of `O=C(N[C@H]1CC[C@@H](NC(=O)c2cc(F)cnc2Oc2cccc(-c3ccc(O)cc3CN3CCOCC3)c2)CC1)c1csc(CO)n1` [Example 58, N-((1s,4s)-4-(5-fluoro-2-(4′-hydroxy-2′-(morpholinomethyl)biphenyl-3-yloxy)nicotinamido)cyclohexyl)-2-(hydroxymethyl)thiazole-4-carboxamide], the IC50 was 63.1 pM.

On to `Cc1cc(C(=O)N[C@H]2CC[C@@H](NC(=O)c3cc(F)cnc3Oc3cccc(-c4ccc(CCN5CCN(C)CC5)cc4)c3)CC2)nn1C` [Example 167, N-((1s,4s)-4-(1,5-Dimethyl-1H-pyrazole-3-carboxamido)cyclohexyl)-5-fluoro-2-(4′-(2-(4-methylpiperazin-1-yl)ethyl)biphenyl-3-yloxy)nicotinamide], for which the IC50 is 50.1 pM.

Consider `O=C(N[C@H]1CC[C@@H](NC(=O)c2cc(F)cnc2Oc2cccc(-c3ccc(CN4CCSCC4)cc3CN3CCOCC3)c2)CC1)c1csc(CO)n1` [Example 170, N-((1s,4s)-4-(5-Fluoro-2-(2′-(morpholinomethyl)-4′-(thiomorpholinomethyl)biphenyl-3-yloxy)nicotinamido)cyclohexyl)-2-(hydroxymethyl)thiazole-4-carboxamide], for which the IC50 was 50.1 pM. Take `CC(C)c1nc(C(=O)N[C@H]2CC[C@@H](NC(=O)c3cc(F)cnc3Oc3cccc(-c4ccc(CN5C[C@@H](C)N[C@@H](C)C5)cc4CN4CCOCC4)c3)CC2)cs1` [Example 190, N-((1s,4s)-4-(2-(4′-(((3S,5R)-3,5-dimethylpiperazin-1-yl)methyl)-2′-(morpholinomethyl)biphenyl-3-yloxy)-5-fluoronicotinamido)cyclohexyl)-2-isopropylthiazole-4-carboxamide]: the IC50 was 39.8 pM.
